Assay results: ChEMBL document CHEMBL6153137, “Design, Synthesis, and Biological Evaluation of Novel Orally Available Covalent CDK12/13 Dual Inhibitors for the Treatment of Tumors” (J Med Chem, 2025)
pIC50: −log10 of the molar value. Calls of active or inactive are those of the source. No cut-off for these calls is given here.

How the values were obtained:
[1] = target: CDK2/Cyclin A2 (Homo sapiens) (UniProt P24941+P20248); test: Inhibition of human recombinat N-terminal GST-tagged CDK2/C-terminal 8X His-tagged Cyclin A2 expressed in HEP Sf9 cells using ATP as substrate at 2 uM measured after 60 mins by ADP-Glo reagent based luminescence analysis
[2] = Cmax in male Sprague-Dawley rat at 40 mg/kg, po administered once daily via gavage for 28 days; format: ADME, organism-based; settings: in vivo, time 28 day
[3] = AUC(0 to t) in female Sprague-Dawley rat at 7.5 mg/kg, po administered via gavage and measured on day 1; format: ADME, organism-based; settings: in vivo, 24 h, time 1 day
[4] = system: MV4-11; test: Antitumor activity against human MV4-11 cells xenografted in Balb/c nude mouse assessed as inhibition of tumor growth at 15 mg/kg, po administered once daily via gavage and measured on day 21; format: functional; settings: MV4-11, 504 h, time 21 day, read-out: TGI
[5] = Half life in Sprague-Dawley rat at 5 mg/kg, po measured for 24 hrs by LC-MS/MS analysis; format: ADME, organism-based; settings: in vivo
[6] = Toxicity against male Sprague-Dawley rat assessed as effect on red blood cells level at 10 to 40 mg/kg, po administered once daily via gavage for 28 days and measured on day 29; format: organism-based; settings: in vivo, 696 h, dose 10-40 mg/kg, time 29 day
[7] = AUC(0 to t) in female Sprague-Dawley rat at 7.5 mg/kg, po administered once daily via gavage for 28 days; format: ADME, organism-based; settings: in vivo, 672 h, time 28 day
[8] = Toxicity against male Sprague-Dawley rat assessed as effect on mean corpuscular volume at 10 to 40 mg/kg, po administered once daily via gavage for 28 days and measured on day 29; format: organism-based; settings: in vivo, 696 h, dose 10-40 mg/kg, time 29 day
[9] = target: T1, Cyclin-dependent kinase 12/13 (Homo sapiens) (UniProt Q14004+Q9NYV4); test: Inhibition of CDK12/13 in human SUM149PT cells assessed as reduction in level of phosphorylation of Ser2 on RNA Pol II CTD incubated for 24 hrs by western blot analysis; format: cell-based; settings: dose 250-1000 nM
[10] = Toxicity against male Sprague-Dawley rat assessed as decrease in lymphocytes content at 10 to 40 mg/kg, po administered once daily via gavage for 28 days and measured on day 29; format: organism-based; settings: in vivo, 696 h, dose 10-40 mg/kg, time 29 day
[11] = system: SUM149PT; test: Antitumor activity against human SUM149PT cells xenografted in Balb/c mouse assessed as inhibition of tumor growth at 60 mg/kg, po administered once daily via gavage and measured on day 20; format: functional; settings: 480 h, time 20 day, read-out: TGI
[12] = system: Ramos; test: Antiproliferative activity against human Ramos cells assessed as reduction in cell viability incubated for 7 days by CellTiter-Glo reagent based luminescence analysis; format: functional; settings: 168 h
[13] = Toxicity against male Sprague-Dawley rat assessed as decrease in thymus volume at 10 to 40 mg/kg, po administered once daily via gavage for 28 days and measured on day 29; format: organism-based; settings: in vivo, 696 h, dose 10-40 mg/kg, time 29 day
[14] = Toxicity against Sprague-Dawley rat assessed as abnormalities at 1 mg/kg, iv measured for 24 hrs; format: organism-based; settings: in vivo
[15] = target: T1, Cyclin-dependent kinase 12/13 (Homo sapiens); test: Inhibition of CDK12/13 in human SUM149PT cells assessed as reduction in level of phosphorylation of Ser2 on RNA Pol II CTD at 250 to 1000 nM by western blot analysis; format: cell-based; settings: dose 250-1000 nM, time lower 1.0 hrs, time upper […]
[16] = target: CDK1/Cyclin E (Homo sapiens) (UniProt P06493+P24864); test: Inhibition of human recombinant N-terminal GST-tagged CDK1/Cyclin E1 expressed in HEP Sf9 cells using ATP as substrate at 2 uM measured after 60 mins by ADP-Glo reagent based luminescence analysis
CDK1/Cyclin E (Homo sapiens), sequence (P06493 whole entry, looked up): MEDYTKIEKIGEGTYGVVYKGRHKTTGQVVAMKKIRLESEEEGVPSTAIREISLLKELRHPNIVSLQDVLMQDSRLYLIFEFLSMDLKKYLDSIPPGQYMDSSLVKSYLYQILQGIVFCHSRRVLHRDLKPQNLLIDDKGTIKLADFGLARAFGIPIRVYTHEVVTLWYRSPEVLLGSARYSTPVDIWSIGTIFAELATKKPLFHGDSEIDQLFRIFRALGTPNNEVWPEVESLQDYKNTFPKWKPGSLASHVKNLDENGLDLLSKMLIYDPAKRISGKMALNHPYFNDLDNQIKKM
CDK1/Cyclin E (Homo sapiens), sequence (P24864 whole entry, looked up): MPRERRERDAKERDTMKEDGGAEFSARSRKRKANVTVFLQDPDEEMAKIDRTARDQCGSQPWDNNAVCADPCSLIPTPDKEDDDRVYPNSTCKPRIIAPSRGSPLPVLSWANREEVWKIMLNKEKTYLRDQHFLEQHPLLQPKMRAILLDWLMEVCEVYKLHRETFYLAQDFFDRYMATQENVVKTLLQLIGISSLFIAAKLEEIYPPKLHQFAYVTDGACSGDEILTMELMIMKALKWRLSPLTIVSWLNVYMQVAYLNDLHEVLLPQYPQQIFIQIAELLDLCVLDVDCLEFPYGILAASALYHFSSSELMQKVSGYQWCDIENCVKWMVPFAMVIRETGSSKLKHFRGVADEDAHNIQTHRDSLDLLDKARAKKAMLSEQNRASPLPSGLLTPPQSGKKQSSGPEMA

[17] = Cmax in Balb/c mouse xenografted with human MV4-11 cells at 15 mg/kg, po administered once daily via gavage; format: ADME, organism-based; settings: in vivo
[18] = Half life in female Sprague-Dawley rat at 7.5 mg/kg, po administered once daily via gavage for 28 days; format: ADME, organism-based; settings: in vivo, time 28 day
[19] = Cmax in male Sprague-Dawley rat at 20 mg/kg, po administered once daily via gavage for 28 days; format: ADME, organism-based; settings: in vivo, time 28 day
[20] = target: T1, Cyclin-dependent kinase 12/13 (Homo sapiens); test: Inhibition of CDK12/13 in human SUM149PT cells assessed as reduction in FANCI gene expression at 500 nM incubated for 8 to 24 hrs by qPCR analysis; format: cell-based; settings: time lower 8.0 hrs, time upper […]
[21] = Toxicity against female Sprague-Dawley rat assessed as decrease in thymus weight at 7.5 to 30 mg/kg, po administered once daily via gavage for 28 days and measured on day 29; format: organism-based; settings: in vivo, 696 h, dose 7.5-30 mg/kg, time 29 day
[22] = target: CDK18/Cyclin Y (Homo sapiens) (UniProt Q07002+Q8ND76); test: Inhibition of human recombinant N-terminal GST-tagged CDK18/N-terminal GST-tagged Cyclin Y expressed in HEP Sf9 cells using ATP as substrate at 2 uM measured after 60 mins by ADP-Glo reagent based luminescence assay
[23] = Toxicity against male Sprague-Dawley rat assessed as soft feces at 40 mg/kg, po administered once daily via gavage for 28 days; format: organism-based; settings: in vivo, 672 h, time 28 day
[24] = Toxicity against female Sprague-Dawley rat assessed as decrease in thymus volume at 7.5 to 30 mg/kg, po administered once daily via gavage for 28 days and measured on day 29; format: organism-based; settings: in vivo, 696 h, dose 7.5-30 mg/kg, time 29 day
[25] = Toxicity against male Sprague-Dawley rat assessed as decrease in thymus weight at 10 to 40 mg/kg, po administered once daily via gavage for 28 days and measured on day 29; format: organism-based; settings: in vivo, 696 h, dose 10-40 mg/kg, time 29 day
[26] = system: HCT-116; test: Antiproliferative activity against PARG KO human HCT-116 cells assessed as reduction in cell viability incubated for 7 days by CellTiter-Glo reagent based luminescence analysis; format: functional; settings: HCT-116, 168 h
[27] = Cmax in Sprague-Dawley rat at 1 mg/kg, iv measured for 24 hrs by LC-MS/MS analysis; format: ADME, organism-based; settings: in vivo
[28] = target: CDK9/cyclin T1 (Homo sapiens) (UniProt O60563+P50750); test: Inhibition of human recombinant N-terminal GST-tagged CDK9/N-terminal GST-tagged and C-terminal 8X His-tagged Cyclin T1 expressed in HEP Sf9 cells using ATP as substrate at 2 uM measured after 60 mins by ADP-Glo reagent based luminescence assay
[29] = Toxicity against Sprague-Dawley rat assessed as abnormalities at 5 to 15 mg/kg, po measured for 24 hrs; format: organism-based; settings: in vivo, dose 5-15 mg/kg
[30] = Half life in Sprague-Dawley rat at 150 mg/kg, po measured for 24 hrs by LC-MS/MS analysis; format: ADME, organism-based; settings: in vivo
[31] = target: Cyclin-dependent kinase 9 (Homo sapiens) (UniProt P50750); test: Inhibition of CDK9 in human SUM149PT cells assessed as reduction in level of phosphorylation of Ser7 on RNA Pol II CTD at 500 nM incubated for 12 hrs followed by drug wash-out and measured after 72 hrs by western blot analysis; format: cell-based
Cyclin-dependent kinase 9 (Homo sapiens), sequence (P50750 whole entry): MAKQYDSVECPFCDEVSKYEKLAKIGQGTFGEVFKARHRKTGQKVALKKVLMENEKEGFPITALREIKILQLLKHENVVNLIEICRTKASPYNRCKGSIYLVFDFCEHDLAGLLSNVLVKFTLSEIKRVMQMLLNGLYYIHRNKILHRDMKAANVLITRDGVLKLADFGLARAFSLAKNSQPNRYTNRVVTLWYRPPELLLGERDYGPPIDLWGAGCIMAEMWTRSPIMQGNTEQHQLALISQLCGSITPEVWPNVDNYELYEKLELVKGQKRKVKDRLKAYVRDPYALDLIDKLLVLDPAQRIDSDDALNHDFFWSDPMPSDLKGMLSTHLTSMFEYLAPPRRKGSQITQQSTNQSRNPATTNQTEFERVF

[32] = AUC in Balb/c mouse xenografted with human MV4-11 cells at 15 mg/kg, po administered once daily via gavage; format: ADME, organism-based; settings: in vivo
[33] = AUC(0 to t) in male Sprague-Dawley rat at 10 mg/kg, po administered via gavage and measured on day 1; format: ADME, organism-based; settings: in vivo, 24 h, time 1 day

Compound `C=CC(=O)N1CCc2c(ncnc2N2CC[C@@H](Nc3ncc(Cl)c(OC)n3)C2)C1` has an inhibition [1] of 1%, a Cmax [2] of 2.41 µg/mL and an AUCt [3] of 1.64 µg·h/mL. For the same compound, the inhibition in vivo at 15 mg/kg [4] was 31%, the half-life [5] was 0.8 h and the Activity [6] was “Non-toxic”. For the same compound, the AUCt [7] was 1.76 µg·h/mL, the Activity [8] was “Non-toxic” and the inhibition [9] was “Dose-dependent-effect”. For the same compound, the Activity [10] was “Toxic”, the inhibition in vivo at 60 mg/kg [11] was 114% and the pIC50 [12] was 7.00. For the same compound, the Activity [13] was “Toxic”, the Activity [14] was “Non-toxic” and the inhibition [15] was “Time-dependent-effect”. The inhibition [16] was 24%, the Cmax [17] was 0.647 µg/mL and the half-life [18] was 2 h. The Cmax [19] was 0.793 µg/mL, the inhibition [20] was “Active” and the Activity [21] was “Toxic”. For the same compound, the inhibition [22] was 68%, the Activity [23] was “Toxic” and the Activity [24] was “Toxic”. The Activity [25] was “Toxic”, the pIC50 [26] was 6.91 and the Cmax [27] was 0.83 µg/mL. For the same compound, the inhibition [28] was 75%, the Activity [29] was “Non-toxic” and the half-life [30] was 21.2 h. The inhibition [31] was “inactive”, the AUC [32] was 2.14 µg·h/mL and the AUCt [33] was 0.978 µg·h/mL.
